Test results reported in US8748415B2 (priority 2011, dated 2014).

System: recombinant NL4-3 virus (Renilla luciferase in nef, Gag P373S)
Test: HIV cell culture assay (luciferase activity in MT-2 cells infected with NLRluc recombinant virus)
Type: cell-based
Settings: NL43, MT-2 cells infected 4-5 days with NLRluc recombinant virus, class symbol
Method in brief: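 Activity was read as luciferase output (Dual Luciferase reagents premixed with lysis solution) after 4–5 days of infection in serially diluted inhibitor. Host cells were MT-2 in 10% FBS RPMI. The reporter virus came from transfected 293T cells and was titered on MT-2.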

Row | Compound | EC50 [nM]
1 | C=C(C)[C@@H]1CC[C@]2(CNCCCN3CCCC3CO)CC[C@]3(C)[C@H](CC[C@@H]4[C@@]5(C)CC=C(c6ccc(C(=O)O)cc6)C(C)(C)[C@@H]5CC[C@]43C)[C@@H]12 (stereo partly drawn) [Example 74, 4-((1R,3aS,5aR,5bR,7aR,11aS,11bR,13aR,13bR)-3a-((3-(2-(hydroxymethyl)pyrrolidin-1-yl)propylamino)methyl)-5a,5b,8,8,11a-pentamethyl-1-(prop-1-en-2-yl)-2,3,3a,4,5,5a,5b,6,7,7a,8,11,11a,11b,12,13,13a,13b-octadecahydro-1H-cyclopenta[a]chrysen-9-yl)benzoic acid] | < 100
2 | C=C(C)[C@@H]1CC[C@]2(CNCCCN3CCS(=O)(=O)CC3)CC[C@]3(C)[C@H](CC[C@@H]4[C@@]5(C)CC=C(c6ccc(C(=O)NS(=O)(=O)C7CC7)cc6)C(C)(C)[C@@H]5CC[C@]43C)[C@@H]12 [Example 172, benzamide, N-(cyclopropylsulfonyl)-4-((1R,3aS,5aR,5bR,7aR,11aS,11bR,13aR,13bR)-3a-(((3-(1,1-dioxido-4-thiomorpholinyl)propyl)amino)methyl)-1-isopropenyl-5a,5b,8,8,11a-pentamethyl-2,3,3a,4,5,5a,5b,6,7,7a,8,11,11a,11b,12,13,13a,13b-octadecahydro-1H-cyclopenta[a]chrysen-9-yl)benzamide] | < 100
3 | C=C(C)[C@@H]1CC[C@]2(CNCCC(=O)NCCC(=O)N(C)C)CC[C@]3(C)[C@H](CC[C@@H]4[C@@]5(C)CC=C(c6ccc(C(=O)O)cc6)C(C)(C)[C@@H]5CC[C@]43C)[C@@H]12 [Example 99, 4-((1R,3aS,5aR,5bR,7aR,11aS,11bR,13aR,13bR)-3a-((3-(3-(dimethylamino)-3-oxopropylamino)-3-oxopropylamino)methyl)-5a,5b,8,8,11a-pentamethyl-1-(prop-1-en-2-yl)-2,3,3a,4,5,5a,5b,6,7,7a,8,11,11a,11b,12,13,13a,13b-octadecahydro-1H-cyclopenta[a]chrysen-9-yl)benzoic acid] | < 100
4 | C=C(C)[C@@H]1CC[C@]2(CNCCOC)CC[C@]3(C)[C@H](CC[C@@H]4[C@@]5(C)CC=C(c6ccc(C(=O)O)cc6)C(C)(C)[C@@H]5CC[C@]43C)[C@@H]12 [Example 180, 4-((1R,3aS,5aR,5bR,7aR,11aS,11bR,13aR,13bR)-3a-((2-methoxyethylamino)methyl)-5a,5b,8,8,11a-pentamethyl-1-(prop-1-en-2-yl)-2,3,3a,4,5,5a,5b,6,7,7a,8,11,11a,11b,12,13,13a,13b-octadecahydro-1H-cyclopenta[a]chrysen-9-yl)benzoic acid] | < 100
5 | C=C(C)[C@@H]1CC[C@]2(CNC(=O)[C@H](N)CCS(C)(=O)=O)CC[C@]3(C)[C@H](CC[C@@H]4[C@@]5(C)CC=C(c6ccc(C(=O)O)cc6)C(C)(C)[C@@H]5CC[C@]43C)[C@@H]12 [Example 135, 4-((1R,3aS,5aR,5bR,7aR,11aS,11bR,13aR,13bR)-3a-(((R)-2-amino-4-(methylsulfonyl)butanamido)methyl)-5a,5b,8,8,11a-pentamethyl-1-(prop-1-en-2-yl)-2,3,3a,4,5,5a,5b,6,7,7a,8,11,11a,11b,12,13,13a,13b-octadecahydro-1H-cyclopenta[a]chrysen-9-yl)benzoic acid] | < 100
6 | C=C(C)[C@@H]1CC[C@]2(CNCCC(=O)N3CCC(F)(F)CC3)CC[C@]3(C)[C@H](CC[C@@H]4[C@@]5(C)CC=C(c6ccc(C(=O)O)cc6)C(C)(C)[C@@H]5CC[C@]43C)[C@@H]12 [Example 117, 4-((1R,3aS,5aR,5bR,7aR,11aS,11bR,13aR,13bR)-3a-((3-(4,4-difluoropiperidin-1-yl)-3-oxopropylamino)methyl)-5a,5b,8,8,11a-pentamethyl-1-(prop-1-en-2-yl)-2,3,3a,4,5,5a,5b,6,7,7a,8,11,11a,11b,12,13,13a,13b-octadecahydro-1H-cyclopenta[a]chrysen-9-yl)benzoic acid] | < 100
7 | C=C(C)[C@@H]1CC[C@]2(CNC/C=C/CN3CCS(=O)(=O)CC3)CC[C@]3(C)[C@H](CC[C@@H]4[C@@]5(C)CC=C(c6ccc(C(=O)O)cc6)C(C)(C)[C@@H]5CC[C@]43C)[C@@H]12 [Example 73, 4-((1R,3aS,5aR,5bR,7aR,11aS,11bR,13aR,13bR)-3a-((((2E)-4-(1,1-dioxido-4-thiomorpholinyl)-2-buten-1-yl)amino)methyl)-1-isopropenyl-5a,5b,8,8,11a-pentamethyl-2,3,3a,4,5,5a,5b,6,7,7a,8,11,11a,11b,12,13,13a,13b-octadecahydro-1H-cyclopenta[a]chrysen-9-yl)benzoic acid] | < 100
8 | C=C(C)[C@@H]1CC[C@]2(CNCC(=O)N(C)C)CC[C@]3(C)[C@H](CC[C@@H]4[C@@]5(C)CC=C(c6ccc(C(=O)O)cc6)C(C)(C)[C@@H]5CC[C@]43C)[C@@H]12 [Example 39, 4-((1R,3aS,5aR,5bR,7aR,11aS,11bR,13aR,13bR)-3a-((2-(dimethylamino)-2-oxoethylamino)methyl)-5a,5b,8,8,11a-pentamethyl-1-(prop-1-en-2-yl)-2,3,3a,4,5,5a,5b,6,7,7a,8,11,11a,11b,12,13,13a,13b-octadecahydro-1H-cyclopenta[a]chrysen-9-yl)benzoic acid] | < 100
9 | C=C(C)[C@@H]1CC[C@]2(CN(CCCN3CCS(=O)(=O)CC3)C3CC3)CC[C@]3(C)[C@H](CC[C@@H]4[C@@]5(C)CC=C(c6ccc(C(=O)O)cc6)C(C)(C)[C@@H]5CC[C@]43C)[C@@H]12 [Example 84, 4-((1R,3aS,5aR,5bR,7aR,11aS,11bR,13aR,13bR)-3a-((cyclopropyl(3-(1,1-dioxido-4-thiomorpholinyl)propyl)amino)methyl)-1-isopropenyl-5a,5b,8,8,11a-pentamethyl-2,3,3a,4,5,5a,5b,6,7,7a,8,11,11a,11b,12,13,13a,13b-octadecahydro-1H-cyclopenta[a]chrysen-9-yl)benzoic acid] | < 100
10 | C=C(C)[C@@H]1CC[C@]2(CN(CCN(C)C)C(=O)CC(=O)O)CC[C@]3(C)[C@H](CC[C@@H]4[C@@]5(C)CC=C(c6ccc(C(=O)O)cc6)C(C)(C)[C@@H]5CC[C@]43C)[C@@H]12 [Example 12, 4-((1R,3aS,5aR,5bR,7aR,11aS,11bR,13aR,13bR)-3a-((2-carboxy-N-(2-(dimethylamino)ethyl)acetamido)methyl)-5a,5b,8,8,11a-pentamethyl-1-(prop-1-en-2-yl)-2,3,3a,4,5,5a,5b,6,7,7a,8,11,11a,11b,12,13,13a,13b-octadecahydro-1H-cyclopenta[a]chrysen-9-yl)benzoic acid] | < 100
11 | C=C(C)[C@@H]1CC[C@]2(CN(CCCN3CCS(=O)(=O)CC3)C(C)=O)CC[C@]3(C)[C@H](CC[C@@H]4[C@@]5(C)CC=C(c6ccc(C(=O)O)cc6)C(C)(C)[C@@H]5CC[C@]43C)[C@@H]12 [Example 17, 4-((1R,3aS,5aR,5bR,7aR,11aS,11bR,13aR,13bR)-5a,5b,8,8,11a-pentamethyl-1-(prop-1-en-2-yl)-3a-((3-(1-dioxo-thiomorpholino)propylamino)methyl)-2,3,3a,4,5,5a,5b,6,7,7a,8,11,11a,11b,12,13,13a,13b-octadecahydro-1H-cyclopenta[a]chrysen-9-yl)benzoic acid] | < 100
12 | C=C(C)[C@@H]1CC[C@]2(CNCCC(=O)N3CCN(S(=O)(=O)N(C)C)CC3)CC[C@]3(C)[C@H](CC[C@@H]4[C@@]5(C)CC=C(c6ccc(C(=O)O)cc6)C(C)(C)[C@@H]5CC[C@]43C)[C@@H]12 [Example 97, 4-((1R,3aS,5aR,5bR,7aR,11aS,11bR,13aR,13bR)-3a-((3-(4-(N,N-dimethylsulfamoyl)piperazin-1-yl)-3-oxopropylamino)methyl)-5a,5b,8,8,11a-pentamethyl-1-(prop-1-en-2-yl)-2,3,3a,4,5,5a,5b,6,7,7a,8,11,11a,11b,12,13,13a,13b-octadecahydro-1H-cyclopenta[a]chrysen-9-yl)benzoic acid] | < 100
13 | C=C(C)[C@@H]1CC[C@]2(CNCCN3CCS(=O)(=O)CC3)CC[C@]3(C)[C@H](CC[C@@H]4[C@@]5(C)CC=C(c6ccc(C(=O)O)c(F)c6)C(C)(C)[C@@H]5CC[C@]43C)[C@@H]12 [Example 95, 4-((1R,3aS,5aR,5bR,7aR,11aS,11bR,13aR,13bR)-3a-(((2-(1,1-dioxido-4-thiomorpholinyl)ethyl)amino)methyl)-1-isopropenyl-5a,5b,8,8,11a-pentamethyl-2,3,3a,4,5,5a,5b,6,7,7a,8,11,11a,11b,12,13,13a,13b-octadecahydro-1H-cyclopenta[a]chrysen-9-yl)-2-fluorobenzoic acid] | < 100
14 | C=C(C)[C@@H]1CC[C@]2(CNCCC(=O)N3CCOCC3)CC[C@]3(C)[C@H](CC[C@@H]4[C@@]5(C)CC=C(c6ccc(C(=O)O)cc6)C(C)(C)[C@@H]5CC[C@]43C)[C@@H]12 [Example 107, 4-((1R,3aS,5aR,5bR,7aR,11aS,11bR,13aR,13bR)-5a,5b,8,8,11a-pentamethyl-3a-((3-morpholino-3-oxopropylamino)methyl)-1-(prop-1-en-2-yl)-2,3,3a,4,5,5a,5b,6,7,7a,8,11,11a,11b,12,13,13a,13b-octadecahydro-1H-cyclopenta[a]chrysen-9-yl)benzoic acid] | < 100
15 | C=C(C)[C@@H]1CC[C@]2(CNCCC(=O)N3CC(F)(F)C(F)(F)C3)CC[C@]3(C)[C@H](CC[C@@H]4[C@@]5(C)CC=C(c6ccc(C(=O)O)cc6)C(C)(C)[C@@H]5CC[C@]43C)[C@@H]12 [Example 106, 4-((1R,3aS,5aR,5bR,7aR,11aS,11bR,13aR,13bR)-5a,5b,8,8,11a-pentamethyl-3a-((3-oxo-3-(3,3,4,4-tetrafluoropyrrolidin-1-yl)propylamino)methyl)-1-(prop-1-en-2-yl)-2,3,3a,4,5,5a,5b,6,7,7a,8,11,11a,11b,12,13,13a,13b-octadecahydro-1H-cyclopenta[a]chrysen-9-yl)benzoic acid] | < 100
